Assay [1] deals with T1, Cell division protein FtsZ (Pseudomonas aeruginosa (strain ATCC 15692 / PAO1 / 1C / PRS 101 / LMG12228), UniProt P47204).
T1 sequence (P47204 whole entry): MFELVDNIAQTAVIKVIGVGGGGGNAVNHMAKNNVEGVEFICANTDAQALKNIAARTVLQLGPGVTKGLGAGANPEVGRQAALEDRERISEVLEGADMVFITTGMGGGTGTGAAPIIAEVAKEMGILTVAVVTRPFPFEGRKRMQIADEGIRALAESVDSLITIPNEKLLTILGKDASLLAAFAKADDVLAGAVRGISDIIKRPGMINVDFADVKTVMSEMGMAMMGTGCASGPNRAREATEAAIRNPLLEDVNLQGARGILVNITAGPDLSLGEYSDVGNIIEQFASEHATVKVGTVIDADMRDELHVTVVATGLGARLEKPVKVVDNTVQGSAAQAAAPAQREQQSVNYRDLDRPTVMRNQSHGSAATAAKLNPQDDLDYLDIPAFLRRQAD
Kind of assay: Inhibition of Pseudomonas aeruginosa FtsZ GTPase activity by spectrophotometric assay.

For the next assay, the system named is Staphylococcus aureus. Kind of assay: Antibacterial activity against Staphylococcus aureus ATCC 25923 at 20 g/L by disc diffusion method. The class given is functional. To be noted: for zone of inhibition at 20000 µg/mL: read-out: IZ. (In general: Agar diffusion results depend on both activity and mobility in agar.)
The subject of a further assay is Escherichia coli. Description: Antibacterial activity against Escherichia coli ATCC 25922 by disc diffusion method. It is filed as functional, organism-based.

The source made the active and inactive calls. No cut-off for these calls is given here.

As for `C=CCNC(=O)[C@H](Cn1cnc2c(Cl)nc(N)nc21)NS(=O)(=O)c1ccc(C)cc1`, the IC50 (usually the concentration that inhibits the measured activity by half) in assay [1] was 1700 µM. The result in the assay on Staphylococcus aureus and with Escherichia coli was inactive.

For the compound `NC[C@H]1O[C@H](O[C@H]2[C@H](O)[C@@H](O[C@H]3O[C@H](CO)[C@@H](O)[C@H](N)[C@H]3O)[C@H](N)C[C@@H]2N)[C@H](O)[C@@H](O)[C@@H]1O`, the outcome with Escherichia coli was inactive.

`Nc1nc(Cl)c2ncn(C[C@H](NS(=O)(=O)c3ccccc3)C(=O)O)c2n1` gave a half-inhibitory concentration (IC50) in assay [1] of 1200 µM. The result in the assay on Staphylococcus aureus and with Escherichia coli was inactive.

As for `C=CCNC(=O)[C@H](Cn1cnc2c(Cl)nc(N)nc21)NC(=O)N[C@H](C)c1ccccc1`, in assay [1], inhibition was half-maximal at 1800 µM (IC50). The outcome with Staphylococcus aureus and with Escherichia coli was inactive.

Compound `CCCNC(=O)[C@H](Cn1cnc2c(Cl)nc(N)nc21)NS(C)(=O)=O` had an IC50 in assay [1] of 700 µM. Besides, in the assay on Staphylococcus aureus, the zone of inhibition at 20000 µg/mL stood at 15 mm. In addition, the outcome with Escherichia coli was inactive.

`Nc1nc(Cl)c2ncn(C[C@H](NC(=O)Nc3ccccc3)C(=O)O)c2n1` yielded an IC50 in assay [1] of 450 µM. In addition, the zone of inhibition at 20000 µg/mL in the assay on Staphylococcus aureus is 10 mm. Moreover, the outcome in the assay with Escherichia coli was inactive.

With `C=CCNC(=O)[C@H](Cn1cnc2c(Cl)nc(N)nc21)NS(C)(=O)=O`, the 50% inhibitory concentration (IC50) in assay [1] is 600 µM. Moreover, the zone of inhibition at 20000 µg/mL in the assay on Staphylococcus aureus amounted to 28 mm. Also, the result in the assay on Escherichia coli was inactive.

As to `CCCNC(=O)[C@H](Cn1cnc2c(Cl)nc(N)nc21)NS(=O)(=O)c1ccc(C)cc1`, in assay [1], the IC50 turned out to be 2600 µM. The zone of inhibition at 20000 µg/mL with Staphylococcus aureus is 11 mm. Further, in the assay with Escherichia coli, the outcome was inactive.

For the compound `CCCNC(=O)[C@H](Cn1cnc2c(Cl)nc(N)nc21)NC(=O)N[C@H](C)c1ccccc1`, in assay [1], half-maximal inhibition (IC50) required 1800 µM. Moreover, the zone of inhibition at 20000 µg/mL in the assay with Staphylococcus aureus was 11 mm. For the same compound, the outcome with Escherichia coli was inactive.

`Nc1nc(Cl)c2ncn(C[C@H](NC(=O)Cc3ccccc3)C(=O)O)c2n1` gave an IC50 in assay [1] of 2000 µM. Further, the outcome in the assay on Staphylococcus aureus and in the assay with Escherichia coli was inactive.

Values taken from ChEMBL document CHEMBL1146332, “Parallel solid synthesis of inhibitors of the essential cell division FtsZ enzyme as a new potential class of antibacterials” (Bioorg Med Chem, 2007).
